Measured values taken from article PMC9919513, “A Practical Approach to Bicyclic Carbamoyl Pyridones with Application to the Synthesis of HIV-1 Integrase Strand Transfer Inhibitors” (Molecules, 2023).
Read-outs that look alike come from different tables or passages of the source.

Experiments:
[1] = tested on: HIV-1 vectors that carry WT IN; test: Single-round HIV-1 replication antiviral assay, wild-type IN; type: cell-based; settings: for EC50: 48 h; for Ratio of the antiviral potencies after and before hydrogenation (WT): EC50 of saturated 7 over EC50 of unsaturated 6, WT IN
Method: The bicyclic metal chelating carbamoyl pyridone moiety is common to second-generation tricyclic INSTIs (3, 4, and 5, Figure 1). Analogs of the current study are simplified analogs that lack a third ring. […] The halogen substitution pattern of the benzylamide moiety can affect inhibitory potencies of INSTIs. We determined the antiviral potencies of our compounds in single round HIV-1 replication assays using viral constructs with wild-type IN [31]. Cytotoxicities were determined as previously described. […] In general, the potencies of bicyclic analogs 6 having an unsaturated bond at the C4 position were insensitive to differences in N-methyl substituents. […] Analogs 6g and 6h represent simplified analogs of DTG (3) and CAB (5), respectively, in which the third ring (C-ring) is opened and having doble bond in B-ring, but lacking α-methyl stereochemistry.
Human embryonic kidney cell culture cell line 293 was acquired from the American Type Culture Collection (ATCC). The human osteosarcoma cell line, HOS, was obtained from Dr. Richard Schwartz (Michigan State University, East Lansing, MI, USA) and grown in Dulbecco’s modified Eagle’s medium (Invitrogen, Carlsbad, CA, USA) supplemented with 5% (v/v) fetal bovine serum, 5% newborn calf serum, and penicillin (50 units/mL) plus streptomycin (50 µg/mL; Quality Biological, Gaithersburg, MD, USA). The transfection vector, pNLNgoMIVR-ΔLUC was made from pNLNgoMIVR-ΔEnv.HSA by removing the HSA reporter gene and replacing it with a luciferase reporter gene between the NotI and XhoI restriction sites. To produce the new IN mutant S230N used in this study, the IN open reading frame was removed from pNLNgoMIVR-ΔENV.LUC by digestion with KpnI and SalI, and the resulting fragment was inserted between the KpnI and SalI sites of pBluescript KS+. Using that construct as the wild-type template, we prepared the following HIV-1 IN mutant S230N using the QuikChange II XL site-directed mutagenesis kit (Agilent Technologies, Santa Clara, CA, USA) protocol. The following sense oligonucleotides were used with matching cognate antisense oligonucleotides (not shown) (Integrated DNA Technologies, Coralville, IA, USA) in the mutagenesis: S230N 5′-[…]-3′. The DNA sequence of the IN mutant S230N construct was verified independently by DNA sequence determination. The mutated IN coding sequences from pBluescript KS+ were then subcloned into pNLNgoMIVR-ΔEnv.LUC (between the KpnI and SalI sites) to produce mutant HIV-1 constructs, which were also checked by DNA sequencing. […]. On the day prior to transfection, 293 cells were plated on 100 mm diameter dishes at a density of 1.5 × 10^6 cells per plate. Next, 293 cells were transfected with 16 µg of pNLNgoMIVR^-ΔLUC and 4 µg of pHCMV-g (obtained from Dr. Jane Burns, University of California, San Diego) using the calcium phosphate method. At approximately 6 h after the calcium phosphate precipitate was added, 293 cells were washed twice with phosphate-buffered saline (PBS) and incubated with fresh media for 48 h. The virus-containing supernatants were then harvested, clarified by low-speed centrifugation, filtrated, and diluted for preparation in antiviral infection assays. On the day prior to the screen, HOS cells were seeded in a 96-well luminescence cell culture plate at a density of 4000 cells in 100 µL per well. On the day of the screen for cellular cytotoxicity determination, cells were treated with compounds from a concentration range of 250 µM to 0.05 µM and then incubated at 37 °C for 48 h. On the day of the screen for antiviral activity infection assays, cells were treated with compounds from a concentration range of 5 µM to 0.0001 µM using 11 serial dilutions and then incubated at 37 °C for 3 h. After compound incorporation and activation in the cell, 100 µL of virus-stock (WT or mutant) diluted to achieve a luciferase signal between 0.2 and 1.5 Relative Luciferase Units (RLUs) was added to each well and further incubated at 37 °C for 48 h. […]

[2] = Human immunodeficiency virus 1, HOS, read-out: EC50, antiviral potency, WT IN, VSV-g-pseudotyped HIV-1 luciferase vector with WT IN, HOS cells, 48 h
[3] = read-out: EC50, antiviral potency, WT IN, VSV-g-pseudotyped HIV-1 luciferase vector with WT IN, HOS cells

| SMILES | EC50 [1, 2] | EC50 [1, 3] | Ratio of the antiviral potencies after and before hydrogenation (WT) [1] | melting point |
| --- | --- | --- | --- | --- |
| O=C(NCc1ccc(F)cc1F)c1cn2ccn(CCCCCO)c(=O)c2c(O)c1=O [Compound 6d, N-(2,4-Difluorobenzyl)-9-hydroxy-2-(5-hydroxypentyl)-1,8-dioxo-1,8-dihydro-2H-pyrido [1,2-a]pyrazine-7-carboxamide] | ~11 nM | 10.8 ± 1.7 nM | – | – |
| O=C(NCc1ccc(F)cc1F)c1cn2c(c(O)c1=O)C(=O)N(CCCCCCO)CC2 [Compound 7c, N-(2,4-Difluorobenzyl)-9-hydroxy-2-(6-hydroxyhexyl)-1,8-dioxo-1,3,4,8-tetrahydro-2H-pyrido [1,2-a]pyrazine-7-carboxamide] | 31.7 ± 3.8 nM | – | 6.6 | 208 to 210 °C |
| O=C(NCc1ccc(F)cc1F)c1cn2ccn(CCCCO)c(=O)c2c(O)c1=O [Compound 6e, N-(2,4-Difluorobenzyl)-9-hydroxy-2-(4-hydroxybutyl)-1,8-dioxo-1,8-dihydro-2H-pyrido [1,2-a]pyrazine-7-carboxamide] | ~17 nM | 16.6 ± 2 nM | – | – |
| O=C(NCc1ccc(F)cc1F)c1cn2c(c(O)c1=O)C(=O)N(CCCCO)CC2 [Compound 7e, N-(2,4-Difluorobenzyl)-9-hydroxy-2-(4-hydroxybutyl)-1,8-dioxo-1,3,4,8-tetrahydro-2H-pyrido [1,2-a]pyrazine-7-carboxamide] | 75.7 ± 7.4 nM | – | 4.6 | 210 to 215 °C |
| O=C(NCc1ccc(F)cc1F)c1cn2ccn(CCCCCCO)c(=O)c2c(O)c1=O [Compound 6c, N-(2,4-Difluorobenzyl)-9-hydroxy-2-(6-hydroxyhexyl)-1,8-dioxo-1,8-dihydro-2H-pyrido [1,2-a]pyrazine-7-carboxamide] | 4.8 ± 0.9 nM | – | – | – |
